EC50 data for 17 compounds are collected here from patent US8501772B2, “3,8-diaminotetrahydroquinoline derivative” (Zeria Pharmaceutical Co., Ltd., priority 2008, dated 2013).

Where a name gives a salt, the structure may show the parent alone.

For this experiment, the target named is T1, human GHS-R1a (Homo sapiens, UniProt Q92847).
T1 construct: expressed in transfected cells
T1 sequence (Q92847 whole entry): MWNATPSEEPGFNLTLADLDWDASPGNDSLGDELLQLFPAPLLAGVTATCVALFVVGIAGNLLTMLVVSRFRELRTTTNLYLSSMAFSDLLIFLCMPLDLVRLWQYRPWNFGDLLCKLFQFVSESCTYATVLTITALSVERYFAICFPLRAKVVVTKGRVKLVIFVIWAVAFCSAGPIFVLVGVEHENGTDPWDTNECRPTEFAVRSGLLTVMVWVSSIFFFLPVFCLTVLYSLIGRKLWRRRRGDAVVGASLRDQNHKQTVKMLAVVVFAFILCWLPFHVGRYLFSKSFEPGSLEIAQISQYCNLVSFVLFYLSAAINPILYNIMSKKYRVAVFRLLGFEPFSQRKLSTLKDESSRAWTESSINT
Nature of the experiment: Agonistic activity by use of a cell line stably expressing human GHS-R1a (intracellular calcium increase). In kind it is cell-based. Conditions: hGHS-R1a/CHO cells, percent increase in intracellular calcium vs 100 nM ghrelin; read-out: GHS-R agonistic activity (EC50: nM). The procedure: CHO-K1 cells were transfected with human GHS-R1a genes, to thereby provide cells stably expressing GHS-R1a (hGHS-R1a/CHO), and the agonistic activity of each compound was evaluated by use of the cells based on percent increase in intracellular calcium as an index.
The hGHS-R1a/CHO cells were inoculated at 6×10^4 cells/well in a 96-well plate (Clear bottom/Black plate, product of Corning), and cultured in Ham's F12 medium containing 10% fetal bovine serum at 37° C. and 5% CO2 for 18 hours. After culture, the medium was removed, and then the hGHS-R1a/CHO cells were cultured for two hours in a Hanks' balanced salt solution/HEPES (HBSS/HEPES, 100 μL) containing a calcium fluorescent indicator (4 μM Fluo-3AM, product of Dojin), 2 mM Probenecid, 0.1% Pluronic F-127, and 0.1% BSA, whereby the indicator was incorporated into the cells. After washing the cells, HBSS/HEPES (175 μL/well) containing 2 mM Probenecid and 0.1% BSA was added to the plate, and the fluorescence before and after addition of each test compound was determined by means of FLEXstation (Ex: 485 nm, Em: 525 nm, product of Molecular Devices). Each test compound was multi-fold diluted with dimethyl sulfoxide and then diluted with HBSS/HEPES containing 2 mM Probenecid, 0.04% Pluronic F-127, and 0.1% BSA, to thereby attain a final concentration of interest. The thus-diluted solution (25 μL/well) was added to the wells.
Agonistic activity(%)=(A−B)/(C−D)×100
A: Fluorescence intensity after addition of test compound
B: Fluorescence intensity before addition of test compound
C: Fluorescence intensity after addition of 100 nM ghrelin
D: Fluorescence intensity before addition of ghrelin
For orientation: Calcium flux is commonly read through the fluorescence of an indicator in the cells.
A word on the EC50: it is the midpoint of the concentration-response curve. `CC[C@@](C)(N)C(=O)N[C@H](Cc1cn(C)c2ccccc12)C(=O)NC1Cc2cccc(N3CCCC3=O)c2N(Cc2ccsc2)C1=O` (stereo partly drawn) [Example 34i, (2R)-2-amino-2-methyl-N-[(2R)-3-(1-methyl-1H-indol-3-yl)-1-oxo-1-[2-oxo-8-(2-oxopyrrolidin-1-yl)-1-(thiophen-3-ylmethyl)-1,2,3,4-tetrahydroquinolin-3-ylamino]propan-2-yl]butanamide hydrochloride]: the EC50 is 0.2 nM.

As for `Cn1cc(C[C@@H](NC(=O)C(C)(C)N)C(=O)NC2Cc3cccc(N4CCCC4=O)c3N(Cc3ccsc3)C2=O)c2ccccc21` (stereo partly drawn) [Example 34b, 2-amino-2-methyl-N-[(2R)-3-(1-methyl-1H-indol-3-yl)-1-oxo-1-[2-oxo-8-(2-oxopyrrolidin-1-yl)-1-(thiophen-3-ylmethyl)-1,2,3,4-tetrahydroquinolin-3-ylamino]propan-2-yl]propanamide hydrochloride], the EC50 worked out at 0.052 nM.

Take `CCN(CC)c1cccc2c1N(Cc1ccccn1)C(=O)C(NC(=O)[C@@H](CC(C)C)NC(=O)CC(C)(C)N)C2` (stereo partly drawn) [Example 47, (2R)-2-(3-Amino-3-methylbutanamido)-N-[8-(diethylamino)-2-oxo-1-(pyridin-2-ylmethyl)-1,2,3,4-tetrahydroquinolin-3-yl]-4-methylpentanamide hydrochloride]: the EC50 was found to be 18.2 nM.

Consider `CC(C)C[C@@H](NC(=O)[C@@H](C)N)C(=O)NC1Cc2cccc(N3CCCC3=O)c2N(Cc2ccsc2)C1=O` (stereo partly drawn) [Example 34g, (2R)-2-((R)-2-aminopropanamido)-4-methyl-N-[2-oxo-8-(2-oxopyrrolidin-1-yl)-1-(thiophen-3-ylmethyl)-1,2,3,4-tetrahydroquinolin-3-yl]pentanamide hydrochloride], for which the concentration giving a half-maximal response (EC50) came to 2.75 nM.

For `CC(C)C[C@@H](NC(=O)C(C)(C)N)C(=O)NC1Cc2cccc(N3C(=O)CCC3=O)c2N(Cc2ccccc2)C1=O` (stereo partly drawn) [Example 37, (2R)-2-(2-Amino-2-methylpropanamido)-N-[1-benzyl-8-(2,5-dioxopyrrolidin-1-yl)-2-oxo-1,2,3,4-tetrahydroquinolin-3-yl]-4-methylpentanamide hydrochloride], the EC50 stood at 1 nM.

Regarding `CC[C@@](C)(N)C(=O)N[C@H](CC(C)C)C(=O)NC1Cc2cccc(N3CCCC3=O)c2N(Cc2ccsc2)C1=O` (stereo partly drawn) [Example 34h, (2R)-2-((R)-2-amino-2-methylbutanamido)-4-methyl-N-[2-oxo-8-(2-oxopyrrolidin-1-yl)-1-(thiophen-3-ylmethyl)-1,2,3,4-tetrahydroquinolin-3-yl]pentanamide hydrochloride], the 50% effective concentration (EC50) worked out at 0.74 nM.

For the compound `CC(C)C[C@@H](NC(=O)C(C)(C)N)C(=O)NC1Cc2cccc(N3CCCCC3=O)c2N(Cc2ccccc2)C1=O` (stereo partly drawn) [Example 36, (2R)-2-(2-Amino-2-methylpropanamido)-N-[1-benzyl-2-oxo-8-(2-oxopiperidin-1-yl)-1,2,3,4-tetrahydroquinolin-3-yl]-4-methylpentanamide hydrochloride], the EC50 turned out to be 1.1 nM.

Consider `CC(C)C[C@@H](NC(=O)C(C)(C)N)C(=O)NC1Cc2cccc(N3CCCC3=O)c2N(Cc2ccsc2)C1=O` (stereo partly drawn) [Example 34l, (2R)-2-(2-amino-2-methylpropanamido)-4-methyl-N-[2-oxo-8-(2-oxopyrrolidin-1-yl)-1-(thiophen-3-ylmethyl)-1,2,3,4-tetrahydroquinolin-3-yl]pentanamide(S)-(+)-mandelate], for which the EC50 came out at 0.37 nM.

Turning to `CC(C)C[C@@H](NC(=O)C(C)(C)N)C(=O)NC1Cc2ccccc2N(Cc2ccccc2)C1=O` (stereo partly drawn) [Comp. Ex. 1, (2R)-2-(2-Amino-2-methylpropanamido)-N-(1-benzyl-2-oxo-1,2,3,4-tetrahydroquinolin-3-yl)-4-methylpentanamide hydrochloride, reference compound], the EC50 was 149 nM.

In the case of `CC[C@](C)(N)C(=O)N[C@H](CC(C)C)C(=O)NC1Cc2cccc(N3CCCC3=O)c2N(Cc2ccsc2)C1=O` (stereo partly drawn) [Example 25j, (2R)-2-((S)-2-amino-2-methylbutanamido)-4-methyl-N-[2-oxo-8-(2-oxopyrrolidin-1-yl)-1-(thiophen-3-ylmethyl)-1,2,3,4-tetrahydroquinolin-3-yl]pentanamide], the EC50 was 4.13 nM.

With `CCCn1cc(C[C@@H](NC(=O)C(C)(C)N)C(=O)NC2Cc3cccc(N4CCCC4=O)c3N(Cc3ccsc3)C2=O)c2ccccc21` (stereo partly drawn) [Example 34e, 2-amino-2-methyl-N-[(2R)-1-oxo-1-[2-oxo-8-(2-oxopyrrolidin-1-yl)-1-(thiophen-3-ylmethyl)-1,2,3,4-tetrahydroquinolin-3-ylamino]-3-(1-propyl-1H-indol-3-yl)propan-2-yl]propanamide hydrochloride], the EC50 amounted to 0.07 nM.

Consider `CC(C)C[C@@H](NC(=O)C(C)(C)N)C(=O)NC1Cc2cccc(N3CCCC3=O)c2N(Cc2cccs2)C1=O` (stereo partly drawn) [Example 34m, (2R)-2-(2-amino-2-methylpropanamido)-4-methyl-N-[2-oxo-8-(2-oxopyrrolidin-1-yl)-1-(thiophen-2-ylmethyl)-1,2,3,4-tetrahydroquinolin-3-yl]pentanamide hydrochloride], for which the EC50 was determined as 1.5 nM.

As to `CCN(CC)c1cccc2c1N(Cc1ccccn1)C(=O)C(NC(=O)[C@@H](CC(C)C)NC(=O)[C@H](N)Cc1ccc(O)cc1)C2` (stereo partly drawn) [Example 39, (2R)-2-((R)-2-Amino-3-(4-hydroxyphenyl)propanamido)-N-(8-(diethylamino)-2-oxo-1-(pyridin-2-ylmethyl)-1,2,3,4-tetrahydroquinolin-3-yl)-4-methylpentanamide hydrochloride], the EC50 is 12.9 nM.

For the compound `CC(C)C[C@@H](NC(=O)C(C)(C)N)C(=O)NC1Cc2cccc(N3CCCC3=O)c2N(Cc2ccsc2)C1=O` (stereo partly drawn) [Example 34k, (2R)-2-(2-amino-2-methylpropanamido)-4-methyl-N-[2-oxo-8-(2-oxopyrrolidin-1-yl)-1-(thiophen-3-ylmethyl)-1,2,3,4-tetrahydroquinolin-3-yl]pentanamide(R)-(−)-mandelate], the half-maximal effective concentration (EC50) is 0.47 nM.

In the case of `CN(C)c1cccc2c1N(Cc1ccccn1)C(=O)C(NC(=O)[C@H](NC(=O)C(C)(C)N)c1ccccc1)C2` (stereo partly drawn) [Example 41, 2-Amino-N-((1R)-2-(8-(dimethylamino)-2-oxo-1-(pyridin-2-ylmethyl)-1,2,3,4-tetrahydroquinolin-3-ylamino)-2-oxo-1-phenylethyl)-2-methylpropanamide hydrochloride], the EC50 stood at 11.3 nM.

Turning to `CC(C)C[C@@H](NC(=O)C(C)(C)N)C(=O)NC1Cc2cccc(N3C(=O)CCC3O)c2N(Cc2ccsc2)C1=O` (stereo partly drawn) [Example 66, (2R)-2-(2-amino-2-methylpropanamido)-N-(8-(2-hydroxy-5-oxopyrrolidin-1-yl)-2-oxo-1-(thiophen-3-ylmethyl)-1,2,3,4-tetrahydroquinolin-3-yl)-4-methylpentanamide], the EC50 is 0.45 nM.

For `CC(C)C[C@@H](NC(=O)C(C)(C)N)C(=O)NC1Cc2cccc(N3CCCC3=O)c2N(Cc2ccccc2)C1=O` (stereo partly drawn) [Example 35, (2R)-2-(2-Amino-2-methylpropanamido)-N-[1-benzyl-2-oxo-8-(2-oxopyrrolidin-1-yl)-1,2,3,4-tetrahydroquinolin-3-yl]-4-methylpentanamide hydrochloride], the half-maximal effective concentration (EC50) was found to be 0.9 nM.
